# Reference: ChEMBL document CHEMBL1145787, “Synthesis and structure-activity relationship of N-substituted 4-arylsulfonylpiperidine-4-hydroxamic acids as novel, orally active matrix metalloproteinase inhibitors for the treatment of osteoarthritis” (J Med Chem, 2003)
# Legend:
# Interstitial collagenase = target: T1, Interstitial collagenase (Homo sapiens, UniProt P03956); experiment: In vitro inhibitory activity against matrix metalloprotease-1
# T1 sequence (P03956 whole entry): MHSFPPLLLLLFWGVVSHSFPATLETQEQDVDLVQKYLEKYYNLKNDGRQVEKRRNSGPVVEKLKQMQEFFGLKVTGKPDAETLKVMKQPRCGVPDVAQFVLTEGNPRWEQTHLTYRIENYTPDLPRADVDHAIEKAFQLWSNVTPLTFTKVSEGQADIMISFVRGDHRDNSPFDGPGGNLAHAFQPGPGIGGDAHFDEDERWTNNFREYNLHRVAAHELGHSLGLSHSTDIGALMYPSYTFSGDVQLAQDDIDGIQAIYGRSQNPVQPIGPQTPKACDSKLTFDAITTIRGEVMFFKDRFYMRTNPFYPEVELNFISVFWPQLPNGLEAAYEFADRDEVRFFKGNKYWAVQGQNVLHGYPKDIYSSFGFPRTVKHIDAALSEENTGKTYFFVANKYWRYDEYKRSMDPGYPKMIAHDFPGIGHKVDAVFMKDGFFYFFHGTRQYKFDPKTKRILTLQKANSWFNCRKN
# [1] = target: Disintegrin and metalloproteinase domain-containing protein 17 (Homo sapiens, UniProt P78536); experiment: In vitro inhibitory activity against tumor necrosis factor alpha converting enzyme (TACE).
# Sequence of Disintegrin and metalloproteinase domain-containing protein 17 (P78536 whole entry, the tested form may be a part): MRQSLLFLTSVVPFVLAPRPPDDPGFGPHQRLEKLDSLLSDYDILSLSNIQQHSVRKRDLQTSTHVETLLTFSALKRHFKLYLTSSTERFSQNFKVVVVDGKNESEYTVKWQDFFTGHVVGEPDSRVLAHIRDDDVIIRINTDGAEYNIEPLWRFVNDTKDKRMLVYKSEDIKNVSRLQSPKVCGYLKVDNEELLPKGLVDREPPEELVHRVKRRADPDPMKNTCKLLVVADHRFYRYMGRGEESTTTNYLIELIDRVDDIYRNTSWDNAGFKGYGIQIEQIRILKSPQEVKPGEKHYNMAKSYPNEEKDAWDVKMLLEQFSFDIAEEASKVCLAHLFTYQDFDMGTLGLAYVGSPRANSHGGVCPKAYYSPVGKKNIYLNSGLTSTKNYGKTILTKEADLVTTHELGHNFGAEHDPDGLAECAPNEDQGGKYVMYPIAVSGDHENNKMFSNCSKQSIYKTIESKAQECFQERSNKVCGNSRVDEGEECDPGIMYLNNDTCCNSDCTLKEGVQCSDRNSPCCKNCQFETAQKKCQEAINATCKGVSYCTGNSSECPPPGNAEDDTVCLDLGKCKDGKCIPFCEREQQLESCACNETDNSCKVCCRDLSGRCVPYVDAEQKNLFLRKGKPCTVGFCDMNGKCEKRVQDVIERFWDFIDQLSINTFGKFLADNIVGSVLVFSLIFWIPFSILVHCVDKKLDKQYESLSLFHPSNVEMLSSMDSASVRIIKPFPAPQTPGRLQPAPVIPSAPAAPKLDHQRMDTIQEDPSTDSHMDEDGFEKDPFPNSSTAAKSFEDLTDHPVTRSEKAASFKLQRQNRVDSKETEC
# [2] = target: Matrix metalloproteinase-9 (Homo sapiens, UniProt P14780); experiment: In vitro inhibitory activity against matrix metalloprotease-9.
# Sequence of Matrix metalloproteinase-9 (P14780 whole entry): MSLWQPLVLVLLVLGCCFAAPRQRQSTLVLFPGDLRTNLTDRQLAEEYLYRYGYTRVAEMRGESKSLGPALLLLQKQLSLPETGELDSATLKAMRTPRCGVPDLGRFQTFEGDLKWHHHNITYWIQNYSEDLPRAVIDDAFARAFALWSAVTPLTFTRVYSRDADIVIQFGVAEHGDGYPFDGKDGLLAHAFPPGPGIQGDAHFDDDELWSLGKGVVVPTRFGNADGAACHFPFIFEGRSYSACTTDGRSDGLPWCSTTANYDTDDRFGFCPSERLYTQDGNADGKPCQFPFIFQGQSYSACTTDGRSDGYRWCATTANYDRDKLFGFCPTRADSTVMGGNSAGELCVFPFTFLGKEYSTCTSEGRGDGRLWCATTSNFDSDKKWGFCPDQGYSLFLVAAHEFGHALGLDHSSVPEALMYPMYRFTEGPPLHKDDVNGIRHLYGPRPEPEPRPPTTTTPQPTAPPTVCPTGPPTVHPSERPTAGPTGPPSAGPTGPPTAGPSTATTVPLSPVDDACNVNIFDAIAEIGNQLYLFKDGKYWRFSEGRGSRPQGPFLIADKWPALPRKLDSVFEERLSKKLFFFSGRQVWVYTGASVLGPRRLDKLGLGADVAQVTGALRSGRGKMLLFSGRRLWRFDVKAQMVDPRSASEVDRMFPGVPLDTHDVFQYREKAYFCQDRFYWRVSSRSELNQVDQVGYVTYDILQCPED
# [3] = In vivo inhibitory activity against Matrix metalloprotease enzyme by dialysis implant assay, value are relative to activity of CGS-27023 (71+/-2) at 25 mg/kg. po; format: functional
compound,measurement,setting,value
O=C(NO)C1(S(=O)(=O)c2ccc(-c3ccco3)cc2)CCN(Cc2ccccc2)CC1,IC50,Interstitial collagenase,40 nM
same,IC50,[1],416 nM
same,IC50,[2],3 nM
same,inhibition in vivo at 25 mg/kg,[3],95%
